Assay results: patent publication US11524966B1 (Valo Early Discovery, Inc., priority 2017, dated 2022)

Target: T1, USP25 (USP25-His6, Boston Biochem E-546) (Homo sapiens, UniProt Q9UHP3)
T1 construct: His6; purchased Boston Biochem E-546
T1 sequence (Q9UHP3 1-1055): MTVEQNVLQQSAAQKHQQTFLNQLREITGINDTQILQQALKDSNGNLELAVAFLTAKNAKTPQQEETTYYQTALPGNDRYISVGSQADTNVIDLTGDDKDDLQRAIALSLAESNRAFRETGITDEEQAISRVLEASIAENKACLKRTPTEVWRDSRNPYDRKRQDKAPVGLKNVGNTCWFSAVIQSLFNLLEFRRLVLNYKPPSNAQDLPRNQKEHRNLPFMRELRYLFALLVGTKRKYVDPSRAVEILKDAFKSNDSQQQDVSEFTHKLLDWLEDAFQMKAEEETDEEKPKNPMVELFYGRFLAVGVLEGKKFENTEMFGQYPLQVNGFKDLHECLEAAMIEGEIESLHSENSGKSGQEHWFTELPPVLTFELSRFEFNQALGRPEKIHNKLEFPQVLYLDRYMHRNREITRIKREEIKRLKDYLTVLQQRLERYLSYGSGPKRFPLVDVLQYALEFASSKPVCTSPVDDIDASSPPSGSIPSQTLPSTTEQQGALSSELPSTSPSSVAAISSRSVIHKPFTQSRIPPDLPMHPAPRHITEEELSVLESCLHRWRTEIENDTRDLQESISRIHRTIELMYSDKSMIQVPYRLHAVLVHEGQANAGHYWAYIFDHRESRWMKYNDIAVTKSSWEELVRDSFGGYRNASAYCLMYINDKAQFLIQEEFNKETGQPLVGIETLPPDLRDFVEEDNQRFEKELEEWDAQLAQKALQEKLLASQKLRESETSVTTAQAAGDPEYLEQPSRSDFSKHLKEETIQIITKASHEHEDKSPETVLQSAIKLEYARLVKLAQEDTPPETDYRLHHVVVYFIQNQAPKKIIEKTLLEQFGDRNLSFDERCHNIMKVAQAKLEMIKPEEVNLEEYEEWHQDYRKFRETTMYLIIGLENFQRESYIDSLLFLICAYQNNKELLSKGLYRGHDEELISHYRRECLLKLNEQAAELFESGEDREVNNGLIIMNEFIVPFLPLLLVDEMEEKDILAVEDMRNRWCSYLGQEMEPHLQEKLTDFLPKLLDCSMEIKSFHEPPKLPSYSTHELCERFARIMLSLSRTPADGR
Experiment: Ubiquitin-Rhodamine 110 Assay for USP25 Activity, Example A-2
Type: biochemical
Conditions: Ubiquitin-Rhodamine 110 assay, Example A-2; read-out: USP25 A-2 IC50 range
Summary of the method: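 Inhibition is quantified as IC50 by 4-parameter fit of fluorescence (485/535 nm) from Ub-Rh110 hydrolysis. Enzyme USP25-His6 at 75 pM with 30 min compound preincubation, then 25 nM substrate for 45 min at room temperature in pH 8.0 Tris buffer containing BME.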

SMILES	IC50
Cc1nc2sc(C(=O)N[C@H]3COc4c(F)c(N5CCNCC5)cc(F)c4C3)c(N)c2s1 [Example 56, (R)-6-amino-N-(5,8-difluoro-7-(piperazin-1-yl)chroman-3-yl)-2-methylthieno[2,3-d]thiazole-5-carboxamide]	200 to 2000 nM
CO[C@H]1CN(c2ccc3c(c2F)OC[C@H](NC(=O)c2sc4nc(C)ccc4c2N)C3)C[C@@H]1N [Example 92, 3-amino-N-[(3R)-7-[(3S,4S)-3-amino-4-methoxypyrrolidin-1-yl]-8-fluoro-3,4-dihydro-2H-1-benzopyran-3-yl]-6-methylthieno[2,3-b]pyridine-2-carboxamide]	200 to 2000 nM
Cc1cnc2c(N)c(C(=O)N[C@H]3COc4cc(N5CCNCC5)ncc4C3)sc2n1 [Example 71, (R)-7-amino-3-methyl-N-(7-(piperazin-1-yl)-3,4-dihydro-2H-pyrano[3,2-c]pyridin-3-yl)thieno[2,3-b]pyrazine-6-carboxamide]	200 to 2000 nM
Cc1ccc2c(N)c(C(=O)N[C@H]3COc4cc([C@H]5CCNC[C@H]5F)ccc4C3)sc2n1 [Example 82, 3-amino-N-((R)-7-((3S,4R)-3-fluoropiperidin-4-yl)chroman-3-yl)-6-methylthieno[2,3-b]pyridine-2-carboxamide]	1 to 50 nM
Cc1ccc2c(N)c(C(=O)N[C@H]3CCc4nc(N5CCNCC5)c(F)cc4C3)sc2n1 (single isomer, unassigned) [Example 30-1]	200 to 2000 nM
O=C(N[C@@H]1COc2cc(N3CCNCC3)ccc2C1)c1cnc2c(ccn2C(F)F)c1 [Example 39, (S)-1-(difluoromethyl)-N-(7-(piperazin-1-yl)chroman-3-yl)-1H-pyrrolo[2,3-b]pyridine-5-carboxamide]	> 2000 nM
Cc1cc(C(F)F)c2c(N)c(C(=O)N[C@H]3COc4cc(N5CC6CNCC(C5)O6)ccc4C3)sc2n1 [Example 88, N-((3R)-7-(9-oxa-3,7-diazabicyclo[3.3.1]nonan-3-yl)chroman-3-yl)-3-amino-4-(difluoromethyl)-6-methylthieno[2,3-b]pyridine-2-carboxamide]	1 to 50 nM
Cc1ccc2c(N)c(C(=O)N[C@H]3COc4cc([C@@H]5CCNC[C@@H]5F)ccc4C3)sc2n1 [Example 83, 3-amino-N-((R)-7-((3R,4S)-3-fluoropiperidin-4-yl)chroman-3-yl)-6-methylthieno[2,3-b]pyridine-2-carboxamide]	50 to 200 nM
Cc1ccc2c(N)c(C(=O)N[C@H]3CCc4nc(N5CCN[C@H](C)C5)ccc4C3)sc2n1 (single isomer, unassigned) [Example 23-16]	200 to 2000 nM
Cc1ccc2c(N)c(C(=O)N[C@H]3COc4c(F)c(N5CCNCC5)c(F)c(F)c4C3)sc2n1 [Example 35, 3-amino-6-methyl-N-[(3R)-5,6,8-trifluoro-7-(piperazin-1-yl)-3,4-dihydro-2H-1-benzopyran-3-yl]thieno[2,3-b]pyridine-2-carboxamide]	50 to 200 nM
Cc1nc2sc(C(=O)N[C@@H]3COc4cc(N5CC6CCC(C5)N6)c(F)cc4C3)c(N)c2s1 [Example 46, N-((3S)-7-(3 8-diazabicyclo[3.2.1]octan-3-yl)-6-fluorochroman-3-yl)-6-amino-2-methylthieno[2,3-d]thiazole-5-carboxamide]	200 to 2000 nM
CO[C@@H]1CN(c2cc3c(cc2F)C[C@@H](NC(=O)c2sc4nc(C)ccc4c2N)CO3)C[C@H]1N [Example 93, 3-amino-N-[(3R)-7-[(3R,4R)-3-amino-4-methoxypyrrolidin-1-yl]-6-fluoro-3,4-dihydro-2H-1-benzopyran-3-yl]-6-methylthieno[2,3-b]pyridine-2-carboxamide]	200 to 2000 nM
Cc1ccc2c(N)c(C(=O)N[C@@H]3COc4cc(N5CCNCC5)cc(Cl)c4C3)sc2n1 [Example 49, (S)-3-amino-N-(5-chloro-7-(piperazin-1-yl)chroman-3-yl)-6-methylthieno[2,3-b]pyridine-2-carboxamide]	> 2000 nM
Cc1ccc2c(N)c(C(=O)N[C@H]3COc4c(F)c(N5CC6CNCC(C5)O6)cc(F)c4C3)sc2n1 [Example 78, N-((3R)-7-(9-oxa-3,7-diazabicyclo[3.3.1]nonan-3-yl)-5,8-difluorochroman-3-yl)-3-amino-6-methylthieno[2,3-b]pyridine-2-carboxamide]	1 to 50 nM
Cc1ccc2c(N)c(C(=O)N[C@@H]3CCc4nc(N5CCNCC5)ccc4C3)sc2n1 (single isomer, unassigned) [Example 23-8]	> 2000 nM
C[C@@H]1CCc2cc(C(=O)N[C@H]3COc4cc(N5CC6CCC(C5)N6)ccc4C3)cnc2N1 [Example 74, (7R)-N-((3R)-7-(3,8-diazabicyclo[3.2.1]octan-3-yl)chroman-3-yl)-7-methyl-5,6,7,8-tetrahydro-1,8-naphthyridine-3-carboxamide]	200 to 2000 nM
O=C(N[C@H]1COc2cc(N3CC4CCC(C3)N4)ccc2C1)c1cnc2c(c1)CCCN2 [Example 50, N-((3R)-7-(3,8-diazabicyclo[3.2.1]octan-3-yl)chroman-3-yl)-5,6,7,8-tetrahydro-1,8-naphthyridine-3-carboxamide]	200 to 2000 nM
Cc1ccc2c(N)c(C(=O)N[C@H]3COc4cc([C@H]5CCNC[C@H]5O)ccc4C3)sc2n1 [Example 62, 3-amino-N-((R)-7-((3S,4R)-3-hydroxypiperidin-4-yl)chroman-3-yl)-6-methylthieno[2,3-b]pyridine-2-carboxamide]	1 to 50 nM
O=C(N[C@H]1COc2cc(N3CCNCC3)ccc2C1)c1cnc2c(c1)CC[C@@H]2O [Example 58, (S)-7-hydroxy-N-((R )-7-(piperazin-1-yl)chroman-3-yl)-6,7-dihydro-5H-cyclopenta[b]pyridine-3-carboxamide]	> 2000 nM
Cc1ccc2c(N)c(C(=O)N[C@H]3COc4cc(N5C[C@H]6CCNC[C@H]65)ccc4C3)sc2n1 (single isomer, unassigned) [Example 33-4]	200 to 2000 nM
CO[C@@H]1CN(c2cc(F)c3c(c2F)OC[C@H](NC(=O)c2sc4nc(C)ccc4c2N)C3)C[C@H]1N [Example 86]	200 to 2000 nM
Cc1ccc2c(N)c(C(=O)N[C@H]3COc4cc([C@H]5CCNC[C@@H]5O)ccc4C3)sc2n1 [Example 64, 3-amino-N-((R)-7-((3R,4R)-3-hydroxypiperidin-4-yl)chroman-3-yl)-6-methylthieno[2,3-b]pyridine-2-carboxamide]	50 to 200 nM
Cc1nc2sc(C(=O)N[C@H]3COc4cc(N5CC6CCC(C5)N6)c(F)cc4C3)c(N)c2s1 [Example 47, N-((3R)-7-(3,8-diazabicyclo[3.2.1]octan-3-yl)-6-fluorochroman-3-yl)-6-amino-2-methylthieno[2,3-d]thiazole-5-carboxamide]	> 2000 nM
Cc1ccc2c(N)c(C(=O)N[C@H]3CCc4nc(N5CCNCC5)ccc4C3)sc2n1 (single isomer, unassigned) [Example 23-7]	200 to 2000 nM
Cc1ccc2c(N)c(C(=O)N[C@H]3COc4cc([C@@H]5CCNC[C@@H]5O)ccc4C3)sc2n1 [Example 63, 3-amino-N-((R)-7-((3R,4S)-3-hydroxypiperidin-4-yl)chroman-3-yl)-6-methylthieno[2,3-b]pyridine-2-carboxamide]	50 to 200 nM
Cc1cnc2c(N)c(C(=O)N[C@@H]3COc4cc(N5CC6CCC(C5)N6)c(F)cc4C3)sc2n1 (single isomer, unassigned) [Example 41]	> 2000 nM
